Laboratory results from patent US12484575B2, “Mosquito egg cryopreservation” (Sanaria Inc., priority 2019, dated 2025).

Legend:
[1] = system: An. gambiae embryos; settings: used as permeabilization reagents; cited from earlier work
[2] = system: larvae of An. gambiae; settings: used with common methodologies; cited from earlier work
[3] = system: An. stephensi SD500 mosquito eggs; assay: Hatch rate of An. stephensi eggs after two-step CPA incubation, plunge into LN2 and thawing/dilution; format: in vivo, Anopheles stephensi; settings: for Average ranked score of hatch rates (1 best to 4): thirteen experiments
Method: (§1) CPA was contained in a polypropylene 19 mm diameter×19 mm deep paint mixing pot (Michaels 10271583) embedded in a custom aluminum block machined to cover a Peltier-cooled block (Torrey Pines Scientific, IC22XT). CPA was equilibrated to temperature for >2 h prior to addition of eggs for the first incubation step at −6.8° C. Temperature was monitored using a digital thermometer with type-T thermocouple probe in a control sample in the block. Several relatively low molecular weight CPAs were evaluated at different concentrations for toxicity by incubation at 0° C. for up to 15 minutes, including: dimethylacetamide, dimethylformamide, dimethyl sulphoxide, ethanol, ethylene glycol, formamide, glycerol, H4-methanol (also referred to herein as “methanol”), D4 (deuterated)-methanol, D4/^13C-methanol, methylacetamide, propanediol, (sourced from SigmaAldrich); combinations in different ratios were also evaluated.

[4] = system: Anopheles eggs; assay: Evaluation of low molecular weight CPAs and CPA concentrations for toxicity and egg viability; format: in vivo, Anopheles stephensi
Method: as §1
Percentages (v/v) of methanol and D4-methanol in water solutions were evaluated at between 50% and 100% aqueous CPA, namely, 50%, 70%, and 90%, and compared to CPA concentrations of 100%.

[5] = ambient temperatures; cited from earlier work
[6] = system: Anopheles eggs; settings: 100% methanol, 20 minutes at −11° C., after subsequent cooling and warming/dilution
Method: Control eggs warmed/diluted from −11° C. (“Control”); eggs subsequently cooled in LN2 (“LN2”) before warming/dilution.
Once the first larval hatching was recorded, subsequent experiments recorded the percentage of larval hatch rate (number of larvae×100/number of eggs in the Petri dish) on day-3 post-thaw, and this was used as the measure of survival. In experiments measuring full development, the hatched larvae were fed standard larval food, pupae were harvested and transferred to rearing pans in 300×300×300 mm cages for adult mosquito emergence.

[7] = 100% CPA, compared with 50%, 70%, 90%

CCCCCCC [heptane]
Toxicity to embryos [1]: extremely toxic to the embryos

OCCO [ethylene glycol, reference compound]
Toxicity to larvae [2]: highly toxic

[2H]OC([2H])([2H])[2H] [D4-Methanol, D4-methanol]
Average ranked score of hatch rates (1 best to 4) ([3]; LN2 plunge boiling −196° C.): 2.47
Average ranked score of hatch rates (1 best to 4) ([3]; LN2 plunge chilled −202° C.): 2.20
Hatch rates versus methanol ([3]; coupled with cooling by plunge into chilled LN2): marginally improved hatch rates
Viability of eggs [4, 7]: highest
Viability of eggs ([4]; CPA at 50% v/v in water): a small percentage of viable eggs
Result among the CPAs evaluated ([4]; comparison of low molecular weight CPAs): best results
Viscosity increase relative to H4-methanol [5]: approximately 11%

CO [Methanol, methanol]
Average ranked score of hatch rates (1 best to 4) ([3]; LN2 plunge boiling −196° C.): 2.87
Average ranked score of hatch rates (1 best to 4) ([3]; LN2 plunge chilled −202° C.): 2.27
Viability of eggs [4, 7]: highest
Viability of eggs ([4]; CPA at 50% v/v in water): a small percentage of viable eggs
Tolerance by and permeation of untreated eggs ([4]; untreated Anopheles eggs): tolerated by, and to permeate, untreated Anopheles eggs
Toxicity to larvae [2]: highly toxic
Proportion of eggs hatched [6]: 15.3±4.3%
